{"source": "patent US8906846B2", "about": "“Method of treating inflammatory bowel disease by administering a clip-inducing agent” (The Texas A&M University System, priority 2011, dated 2014)", "key": {"CRL-5822 cells [1]": {"tested_on": "CRL-5822 cells", "experiment": "Effects of CpG, MKR.4 and anti-MHC class II antibody on CRL-5822 cell viability counts (Example 2)", "format": "cell-based, human", "settings": "CpG 1 ug/mL at start, MKR.4 2.5 ug/mL 24 h later for 2 h, Anti MHC Class II 5 ug/mL, viability counts 24 h after antibody", "method": "CRL-5822 were Prepared as Follows: • Removed the media from a flask of CRL-5822 using a sterile glass pipet and vacuum • Added 1.5 mL of accutase to the flask and placed in incubator for 20 minutes • Washed with 3 mL of PBS • Transferred all to a sterile 15 mL conical tube • Centrifuged for 5′@1000 rpm • Removed supernatant with sterile glass pipet and vacuum • Resuspended in 3 mL of PBS • Performed a hemacytometer count indicating: 1.14*10^6 cells total of CRL-5822 cells • 1.14*10^6/8 wells+2 wells for culture maintenance=10 wells • 1.14*10^6/10 wells=[…] cells per well • Centrifuged the 3 mL of cell suspension for 5′ at 1000 rpm • Resuspended pellet in 10 mL of 10% FBS RPMI • 1 mL of this was added to 2 wells in a 12-well plate added 1 mL of fresh 10% FBS RPMI to each well to bring the total volume up to 2 mL.\n(§1) 8 wells were set up for the experiment for each cell type (CRL-5822 and C57BL/6) with no treatment, with CpG, MKR.4 peptide, with MKR.4 peptide+CpG and with or without addition of purified Anti Class-II (HLA-DR,DP,DQ) treatment in the amounts listed below.\nCRL-5822 • CpG: • (x) (1 mg/mL stock)=(1 ug/mL) (2 mL) • x=2 ul • MKR.4: • (x) (5 mg/mL stock)=(2.5 ug/mL) (2 mL) • x=1 ul • Anti MHC Class II • Treat at 5 ug/mL • Stock is at 1 mg/mL • (x) (1 mg/mL)=(5 ug/mL) (2 mL) • x=10 ul/well\n(§2) CpG was administered to activate the cells and induce CLIP expression. MKR.4 was added to select wells 24 hours after cell activation. The cells were incubated with MKR.4 for 2 hours. Then fresh media with or without Anti MHC Class II was added. 24 hours after Anti MHC Class II was added to the wells viability counts were performed."}, "C57BL/6 splenocytes": {"tested_on": "C57BL/6 splenocytes", "experiment": "Effects of CpG, MKR.4 and anti-MHC class II antibody on C57BL/6 splenocyte viability counts (Example 2)", "format": "cell-based, mouse", "settings": "CpG 5 ug/mL at start, MKR.4 5 ug/mL 24 h later for 2 h, Anti MHC Class II 5 ug/mL, viability counts 24 h after antibody", "method": "C57BL/6 were Prepared as Follows: • A spleen from a C57BL/6 mouse was placed in a cell strainer in a petri dish with 6 mL of PBS • The spleen was mashed to produce a cell suspension • The PBS splenocyte cell suspension was transferred into a labeled 15 mL conical tube and centrifuged for 5 minutes at 1000 rpm • The pellet was resuspended in 1 mL of PBS • Geys was prepared to lyse the red blood cells • 7 mL of DI H20 • 0.5 mL of Geys B • 0.5 mL of Geys C • weighed out […] of NH4Cl • Mixed the […] of NH4Cl with 2 mL of Geys A • Transferred the dissolved solution to a 15 mL conical tube with the H20, Geys B, and Geys C • 3 mL of the Geys solution was added to the 1 mL of PBS cell suspension, mixed well and placed on ice for 1 minute (frequently inverted solution in tube on ice during the 1 minute) • The mixture was centrifuged for 5 minutes at 1000 rpm, washed with 5 mL of PBS, centrifuged for 5 minutes at 1000 rpm and resuspended in 10 mL of PBS • A hemacytometer count was performed: 99.0*10^6 cells total (9.9*10^6 cells/mL) plate 4*10^6 cells per well*8 wells=32 million; 32*10^6/9.9*10^6=3.23 mL of this suspension needed to obtain 32*10^6 cells • Centrifuged 3.23 mL of the suspension for 5 minutes at 1000 rpm and resuspended the pellet in 8 mL of 5% FBS RPMI • 1 mL of suspension was added to each well (12-well plate) • Added another 2 mL of 5% FBS RPMI to each well to bring the final volume up to 3 mL\nas §1\nC57BL/6 • CpG: • (x) (1 mg/mL stock)=(5 ug/mL) (3 mL) • x=15 ul • MKR.4: • (x) (5 mg/mL stock)=(5 ug/mL) (3 mL) • x=3 ul • Anti MHC Class II • Treat at 5 ug/mL • Stock is at 1 mg/mL • (x) (1 mg/mL)=(5 ug/mL) (3 mL) • x=15 ul/well\nas §2"}, "CRL-5822 cells [2]": {"tested_on": "CRL-5822 cells", "experiment": "Effects of LPS, MKR.4 and anti-MHC class II antibody on CRL-5822 cell viability counts (Example 1)", "format": "cell-based, human", "settings": "LPS 1 ug/mL at start, MKR.4 2.5 ug/mL 24 h later for 2 h, Anti MHC Class II 5 ug/mL, viability counts 24 h after antibody", "method": "Methods • The media was removed from a flask of CRL-5822 using a sterile glass pipet and vacuum and 1.5 mL of accutase was added to the flask and placed in incubator for 20 minutes • The cells were washed with 3 mL of PBS and transferred to a sterile 15 mL conical tube and centrifuged for 5 minutes @1000 rpm • The supernatant was removed with sterile glass pipet and vacuum and the pellet resuspended in 5 mL of PBS • A cell count was performed using the TC-10 automated counter • Loaded 10 ul of cell suspension+10 ul of trypan blue into disposable counting slide • Loaded slide into the TC-10 • Count • Live: 3.54*10^4 cells/mL*5 mL=177,000 cells total • 177,000/9 wells (8 wells in experiment+1 to maintain culture)=19,666 cells/well (flask). • The 5 mL of cell suspension was centrifuged for 5′ at 1000 rpm, the pellet was resuspended in 9 mL of 10% FBS RPMI • 1 mL of the cell suspension was added to a T-25 flask that had 4 mL of media in it and placed in the incubator. • After culture 1 mL of the cell suspension was added to each well (8 wells in a labeled 24 well plate) • A fresh vial of MKR.4 was resuspended in sterile DMSO • 7 mg of peptide was used to make a 5 mg/mL stock • 7 mg/mL=5 mg/mL=1.4 mL of DMSO • The peptide was added into 1.4 mL of DMSO, under the hood to maintain sterility • Once all of the peptide was dissolved, 200 ul aliquots were made […]"}}, "data": [{"substance": "5′-tcgtcgttttgtcgttttgtcgtt-3′ [CpG, reference compound]", "values": [{"measurement": "Total Dead", "setting": "CRL-5822 cells [1]", "value": "0.07*10^6"}, {"measurement": "Total Live", "setting": "CRL-5822 cells [1]", "value": "0.35*10^6"}, {"measurement": "Total Dead", "setting": "C57BL/6 splenocytes", "value": "0.08*10^6"}, {"measurement": "Total Live", "setting": "C57BL/6 splenocytes", "value": "1.25*10^6"}]}, {"substance": "ANS GFR IMA VLA SGG QY (ANSGFRIMAVLASGGQY) [MKR.4]", "values": [{"measurement": "Total Dead", "setting": "CRL-5822 cells [2]", "value": "0.07*10^6"}, {"measurement": "Total Live", "setting": "CRL-5822 cells [2]", "value": "0.32*10^6"}, {"measurement": "Total Dead", "setting": "CRL-5822 cells [1]", "value": "0.08*10^6"}, {"measurement": "Total Live", "setting": "CRL-5822 cells [1]", "value": "0.24*10^6"}, {"measurement": "Total Dead", "setting": "C57BL/6 splenocytes", "value": "0.10*10^6"}, {"measurement": "Total Live", "setting": "C57BL/6 splenocytes", "value": "0.44*10^6"}]}]}
